These results are taken from patent US20160340322A1 (NISSAN CHEMICAL INDUSTRIES, LTD., priority 2013, published 2016).

The target of the experiment is T1, Human T-type calcium channel (Cav 3.2) (Homo sapiens, UniProt O95180).
T1 construct: Edward Perez-Reyes, University of Virginia, USA; host or cells: HEK293
T1 sequence (O95180 whole entry): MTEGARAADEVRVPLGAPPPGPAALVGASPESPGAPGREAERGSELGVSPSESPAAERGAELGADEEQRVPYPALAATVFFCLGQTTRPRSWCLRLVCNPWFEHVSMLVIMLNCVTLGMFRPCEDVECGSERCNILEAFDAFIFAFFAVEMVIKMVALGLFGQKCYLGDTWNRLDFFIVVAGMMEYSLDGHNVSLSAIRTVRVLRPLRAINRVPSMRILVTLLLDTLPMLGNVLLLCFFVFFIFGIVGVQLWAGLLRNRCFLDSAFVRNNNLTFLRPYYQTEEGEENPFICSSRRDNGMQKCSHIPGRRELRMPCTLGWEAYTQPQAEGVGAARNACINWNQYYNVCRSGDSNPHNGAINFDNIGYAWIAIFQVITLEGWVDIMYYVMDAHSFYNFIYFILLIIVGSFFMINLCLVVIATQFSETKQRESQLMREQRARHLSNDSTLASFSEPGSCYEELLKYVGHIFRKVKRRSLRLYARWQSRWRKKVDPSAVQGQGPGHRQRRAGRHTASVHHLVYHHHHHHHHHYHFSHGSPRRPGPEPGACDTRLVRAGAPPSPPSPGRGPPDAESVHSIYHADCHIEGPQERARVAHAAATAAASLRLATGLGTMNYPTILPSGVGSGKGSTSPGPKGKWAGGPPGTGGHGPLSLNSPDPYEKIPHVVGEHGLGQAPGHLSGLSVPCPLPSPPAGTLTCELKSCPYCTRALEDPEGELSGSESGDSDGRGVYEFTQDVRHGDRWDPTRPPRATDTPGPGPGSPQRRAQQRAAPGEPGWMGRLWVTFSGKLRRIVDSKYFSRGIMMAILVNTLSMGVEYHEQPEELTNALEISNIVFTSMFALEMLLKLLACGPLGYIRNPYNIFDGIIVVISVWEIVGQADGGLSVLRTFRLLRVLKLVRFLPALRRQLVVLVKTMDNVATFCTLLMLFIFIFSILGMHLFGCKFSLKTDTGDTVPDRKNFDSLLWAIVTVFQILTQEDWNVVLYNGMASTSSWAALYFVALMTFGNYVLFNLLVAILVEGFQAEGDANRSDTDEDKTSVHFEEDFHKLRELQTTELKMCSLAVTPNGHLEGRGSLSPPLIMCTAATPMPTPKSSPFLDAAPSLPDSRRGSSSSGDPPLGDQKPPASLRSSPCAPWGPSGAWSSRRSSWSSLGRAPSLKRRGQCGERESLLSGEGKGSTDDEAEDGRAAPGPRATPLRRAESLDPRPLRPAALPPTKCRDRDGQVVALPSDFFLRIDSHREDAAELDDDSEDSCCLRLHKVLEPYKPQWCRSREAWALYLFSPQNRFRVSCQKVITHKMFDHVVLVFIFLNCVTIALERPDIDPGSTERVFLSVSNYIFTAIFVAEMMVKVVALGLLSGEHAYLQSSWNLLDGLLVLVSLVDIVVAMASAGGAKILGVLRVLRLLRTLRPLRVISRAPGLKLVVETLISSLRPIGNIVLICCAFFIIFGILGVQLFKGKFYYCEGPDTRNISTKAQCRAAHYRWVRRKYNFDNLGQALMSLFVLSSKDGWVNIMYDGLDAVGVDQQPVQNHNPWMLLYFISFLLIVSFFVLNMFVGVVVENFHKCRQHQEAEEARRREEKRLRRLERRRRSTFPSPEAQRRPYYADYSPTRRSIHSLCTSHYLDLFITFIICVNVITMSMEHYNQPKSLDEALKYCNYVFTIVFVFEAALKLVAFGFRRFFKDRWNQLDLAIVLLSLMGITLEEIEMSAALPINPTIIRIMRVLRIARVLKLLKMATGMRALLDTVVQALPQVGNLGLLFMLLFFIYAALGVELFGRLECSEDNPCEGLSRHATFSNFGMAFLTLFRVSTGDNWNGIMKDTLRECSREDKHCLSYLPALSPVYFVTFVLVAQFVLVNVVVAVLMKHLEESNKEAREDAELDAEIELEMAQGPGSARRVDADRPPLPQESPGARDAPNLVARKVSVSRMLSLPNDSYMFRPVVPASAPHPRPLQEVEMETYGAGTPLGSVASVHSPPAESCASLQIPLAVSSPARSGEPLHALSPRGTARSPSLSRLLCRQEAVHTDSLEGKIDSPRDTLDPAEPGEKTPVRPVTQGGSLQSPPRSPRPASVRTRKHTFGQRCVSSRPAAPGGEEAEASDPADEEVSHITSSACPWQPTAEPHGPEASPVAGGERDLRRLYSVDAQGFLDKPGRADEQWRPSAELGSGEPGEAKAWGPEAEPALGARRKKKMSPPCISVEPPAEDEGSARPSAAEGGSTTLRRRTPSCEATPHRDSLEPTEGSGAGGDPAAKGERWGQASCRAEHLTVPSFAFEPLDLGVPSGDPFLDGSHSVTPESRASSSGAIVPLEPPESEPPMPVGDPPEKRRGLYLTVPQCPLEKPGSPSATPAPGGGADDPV
Nature of the experiment: Calcium Influx Inhibition Assay. Format: cell-based. The settings on record: human T-type calcium channel (Cav 3.2) expressing HEK293 cells; FLIPR Calcium 4 fluorescence; 30 min compound incubation; read-out: T-type calcium channel inhibition concentration IC50. Here is the method: 1. Calcium Influx Inhibition Assay Human T-type calcium channel (Cav 3.2) expressing HEK293 cells were introduced from Prof. Edward Perez-Reyes, University of Virginia, USA. The calcium-sensitive fluorescent dye used was FLIPR Calcium 4 Assay Kit (Molecular Devices). To a black 96-well plate with a clear bottom coated with type I collagen, the human T-type calcium channel (Cav 3.2) expressing HEK293 cells were seeded and cultured overnight, and the culture medium was removed. A solution of the calcium-sensitive fluorescent dye was added, and the resultant plate was incubated at 37° C. in an atmosphere of 5% carbon dioxide for 30 minutes. To the plate, a diluted solution of a compound was added, and subjected to further incubation at 37° C. in an atmosphere of 5% carbon dioxide for 30 minutes. While fluorescence was continuously analyzed from the bottom with a FlexStation 3 (Molecular Devices), a calcium solution was added. […] Based on the rise value in the fluorescence from the base line, the inhibition percentage was calculated. The logarithms of compound concentrations were plotted with respect to the inhibition activities to obtain an IC50 value.
With `Cn1cc(C2=CCN(c3cnn(Cc4cnc(C(F)(F)F)s4)c(=O)n3)C[C@@H]2O)cn1` [Synthesis Example 24, (R)-5-[5-Hydroxy-4-(1-methyl-1H-pyrazol-4-yl)-5,6-dihydropyridin-1(2H)-yl]-2-{[2-(trifluoromethyl)thiazol-5-yl]methyl}-1,2,4-triazin-3(2H)-one], the IC50 worked out at 4900 nM. Take `O=c1nc(N2Cc3ccc(O)cc3C(O)C2)cnn1Cc1ccc(C(F)(F)F)s1` (stereo not drawn) [Synthesis Example 25, 5-[4,6-Dihydroxy-3,4-dihydroisoquinolin-2(1H)-yl]-2-{[5-(trifluoromethyl)thiophen-2-yl]methyl}-1,2,4-triazin-3(2H)-one]: the IC50 was determined as 1800 nM. The same measure for `O=c1nc(N2CC=C(c3ccc(F)cc3)[C@@H](O)C2)cnn1Cc1ccc(C(F)(F)F)o1` [Synthesis Example 27, (R)-5-[4-(4-Fluorophenyl)-5-hydroxy-5,6-dihydropyridin-1(2H)-yl]-2-{[5-(trifluoromethyl)furan-2-yl]methyl}-1,2,4-triazin-3(2H)-one]: 130 nM; for `O=c1nc(N2CC=C(c3ccc(F)cc3)[C@@H](O)C2)cnn1Cc1ccc(OC(F)F)nc1` [Synthesis Example 28, (R)-2-{[6-(Difluoromethoxy)pyridin-3-yl]methyl}-5-[4-(4-fluorophenyl)-5-hydroxy-5,6-dihydropyridin-1(2H)-yl]-1,2,4-triazin-3(2H)-one]: 94 nM; for `COc1nc(C2=CCN(c3cnn(Cc4ccc(C(F)(F)F)s4)c(=O)n3)C[C@@H]2O)ccc1Cl` [Synthesis Example 29, (R)-5-[5-Chloro-5′-hydroxy-6-methoxy-5′,6′-dihydro-(2,4′-bipyridine)-1′(2′H)-yl]-2-{[5-(trifluoromethyl)thiophen-2-yl]methyl}-1,2,4-triazin-3(2H)-one]: 12 nM. The same measure for `Cc1cc(F)ccc1C1=CCN(c2cnn(Cc3ccc(C(F)(F)F)s3)c(=O)n2)C[C@@H]1O` [Synthesis Example 30, (R)-5-[4-(4-Fluoro-2-methylphenyl)-5-hydroxy-5,6-dihydropyridin-1(2H)-yl]-2-{[5-(trifluoromethyl)thiophen-2-yl]methyl}-1,2,4-triazin-3(2H)-one]: 72 nM; for `Cc1cccc(C2=CCN(c3cnn(Cc4ccc(C(F)(F)F)s4)c(=O)n3)C[C@@H]2O)n1` [Synthesis Example 31, (R)-5-[5′-Hydroxy-6-methyl-5′,6′-dihydro-(2,4′-bipyridin)-1′(2′H)-yl]-2-{[5-(trifluoromethyl)thiophen-2-yl]methyl}-1,2,4-triazin-3 (2H)-one]: 120 nM; for `COc1cccc(C2=CCN(c3cnn(Cc4ccc(C(F)(F)F)s4)c(=O)n3)C[C@@H]2O)n1` [Synthesis Example 32]: 48 nM. Next, `Cc1nc(N2CCN(c3cnn(Cc4ccc(C(F)(F)F)s4)c(=O)n3)CC2)ccc1F` [Synthesis Example 33]: 32 nM. Take `O=c1nc(N2CCN(c3ccc(F)c(Cl)c3)CC2)cnn1Cc1ccc(C(F)(F)F)s1` [Synthesis Example 34]: the IC50 stood at 61 nM. Next, `O=c1nc(N2CC=C(c3ccc(F)cc3)C(F)C2)cnn1Cc1ccc(C(F)(F)F)s1` (stereo not drawn) [Synthesis Example 35, 5-[5-Fluoro-4-(4-fluorophenyl)-5,6-dihydropyridin-1(2H)-yl]-2-{[5-(trifluoromethyl)thiophen-2-yl]methyl}-1,2,4-triazin-3(2H)-one]: 31 nM; `NC1CN(c2cnn(Cc3ccc(C(F)(F)F)s3)c(=O)n2)CC=C1c1ccc(F)cc1` (stereo not drawn) [Synthesis Example 36, 5-[5-Amino-4-(4-fluorophenyl)-5,6-dihydropyridin-1(2H)-yl]-2-{[5-(trifluoromethyl)thiophen-2-yl]methyl}-1,2,4-triazin-3(2H)-one]: 3.4 nM; `Cc1ccc(C2=CCN(c3cnn(Cc4ccc(C(F)(F)F)s4)c(=O)n3)C[C@@H]2O)o1` [Synthesis Example 37, (R)-5-[5-Hydroxy-4-(5-methylfuran-2-yl)-5,6-dihydropyridin-(2H)-yl]-2-{[5-(trifluoromethyl)thiophen-2-yl]methyl}-1,2,4-triazin-3(2H)-one]: 4.8 nM. The same measure for `Cn1cc(C2=CCN(c3cnn(Cc4ccc(C(F)(F)F)s4)c(=O)n3)C[C@@H]2O)cn1` [Synthesis Example 38, (R)-5-[5-Hydroxy-4-(1-methyl-1H-pyrazol-4-yl)-5,6-dihydropyridin-1(2H)-yl]-{[5-(trifluoromethyl)thiophen-2-yl]methyl}-1,2,4-triazin-3(2H)-one]: 180 nM; for `Cn1ccc(C2=CCN(c3cnn(Cc4ccc(C(F)(F)F)s4)c(=O)n3)CC2)n1` [Synthesis Example 39, 5-[4-(1-Methyl-1H-pyrazol-3-yl)-5,6-dihydropyridin-1(2H)-yl]-2-{[5-(trifluoromethyl)thiophen-2-yl]methyl}-1,2,4-triazin-3(2H)-one]: 1300 nM. Next, `Cc1cc(N2CCN(c3cnn(Cc4ccc(C(F)(F)F)s4)c(=O)n3)CC2)cs1` [Synthesis Example 40, 5-[4-(5-Methylthiophen-3-yl)piperazin-1-yl]-2-{[5-(trifluoromethyl)thiophen-2-yl]methyl}-1,2,4-triazin-3(2H)-one]: 69 nM; `O=c1nc(N2CCN(c3ccc(Cl)cc3)CC2)cnn1Cc1ccc(C(F)(F)F)s1` [Synthesis Example 41, 5-[4-(4-Chlorophenyl)piperazin-1-yl]-2-{[5-(trifluoromethyl)thiophen-2-yl]methyl}-1,2,4-triazin-3(2H)-one]: 29 nM. With `COc1ccc2c(c1)CCN(c1cnn(Cc3ccc(C(F)(F)F)s3)c(=O)n1)C2C` (stereo not drawn) [Synthesis Example 42, 5-[6-Methoxy-1-methyl-3,4-dihydroisoquinolin-2(1H)-yl]-2-{[5-(trifluoromethyl)thiophen-2-yl]methyl}-1,2,4-triazin-3(2H)-one], the IC50 was determined as 600 nM.

For the compound `O=c1nc(N2CC=C(c3ccc(F)c(Cl)c3)[C@@H](O)C2)cnn1Cc1cnc(C(F)(F)F)s1` [Synthesis Example 43, (R)-5-[4-(3-Chloro-4-fluorophenyl)-5-hydroxy-5,6-dihydropyridin-1(2H)-yl]-2-{[2-(trifluoromethyl)thiazol-5-yl]methyl}-1,2,4-triazin-3(2H)-one], the IC50 was found to be 54 nM. In the case of `O=c1nc(N2CCc3cc(C(F)(F)F)ccc3C2)cnn1Cc1cnc(C(F)(F)F)s1` [Synthesis Example 44, 5-[6-(trifluoromethyl)-3,4-dihydroisoquinolin-2-(1H)-yl]-2-{[2-(trifluoromethyl)thiazol-5-yl]methyl}-1,2,4-triazin-3(2H)-one], the IC50 came out at 570 nM. The same measure for `Cc1ccc(C2=CCN(c3cnn(Cc4cnc(C(F)(F)F)s4)c(=O)n3)C[C@@H]2O)cc1F` [Synthesis Example 45, (R)-5-[4-(3-Fluoro-4-methylphenyl)-5-hydroxy-5,6-dihydropyridin-1(2H)-yl]-2-{[2-(trifluoromethyl)thiazol-5-yl]methyl}-1,2,4-triazin-3(2H)-one]: 130 nM. Next, `O=c1nc(N2CC=C(c3ccc(F)cc3)[C@@H](O)C2)cnn1Cn1ccc(C(F)(F)F)n1` [Synthesis Example 46, (R)-5-[4-(4-Fluorophenyl)-5-hydroxy-5,6-dihydropyridin-(2H)-yl]-2-{[3-(trifluoromethyl)-1H-pyrazol-1-yl]methyl}-1,2,4-triazin-3(2H)-one]: 110 nM; `O=c1nc(N2CC=C(c3ccc(F)cc3)[C@@H](O)C2)cnn1Cn1cc(Cl)cn1` [Synthesis Example 47, (R)-2-[(4-Chloro-1H-pyrazol-1-yl)methyl]-5-[4-(4-fluorophenyl)-5-hydroxy-5,6-dihydropyridin-1(2H)-yl]-1,2,4-triazin-3(2H)-one]: 2600 nM; `CC(C)(C)c1ccc(Cn2ncc(N3CC=C(c4ccc(F)cc4)[C@@H](O)C3)nc2=O)s1` [Synthesis Example 48, (R)-2-{[5-(Tert-butyl)thiophen-2-yl]methyl}-5-[4-(4-fluorophenyl)-5-hydroxy-5,6-dihydropyridin-(2H)-yl]-1,2,4-triazin-3(2H)-one]: 6.4 nM. Next, `O=c1nc(N2CC=C(c3ccc(F)cc3)[C@@H](O)C2)cnn1Cn1ccc(C(F)(F)C(F)(F)F)n1` [Synthesis Example 49, (R)-5-[4-(4-Fluorophenyl)-5-hydroxy-5,6-dihydropyridin-1(2H)-yl]-2-{[3-(perfluoroethyl)-1 H-pyrazol-1-yl]methyl}-1,2,4-triazin-3(2H)-one]: 25 nM; `CC(C)(C)c1ncc(Cn2ncc(N3CC=C(c4ccc(F)cc4)[C@@H](O)C3)nc2=O)o1` [Synthesis Example 50, (R)-2-{[2-(Tert-butyl)oxazol-5-yl]methyl}-5-[4-(4-fluorophenyl)-5-hydroxy-5,6-dihydropyridin-1(2H)-yl]-1,2,4-triazin-3(2H)-one]: 62 nM; `O=c1nc(N2CC=C(c3ccc(F)cc3)[C@@H](O)C2)cnn1Cc1ccc(OS(=O)(=O)C(F)(F)F)nc1` [Synthesis Example 51, (R)-5-({5-[4-(4-Fluorophenyl)-5-hydroxy-5,6-dihydropyridin-1(2H)-yl]-3-oxo-1,2,4-triazin-2(3H)-yl}methyl)pyridin-2-yl trifluoromethanesulfonate]: 5.6 nM.
